Patent US10004701B2, “Methods and compositions for treating infection” (UNIVERSITY OF ROCHESTER, priority 2012, dated 2018)
Where a name gives a salt, the structure may show the parent alone. Read-outs that look alike come from different tables or passages of the source.

Columns and labels:
Assay in all cases: AK assay 384-well format, Prestwick library screening
E. faecium = format: cell-based, Enterococcus faecium; conditions: 50 μM final drug concentration; for fold induction at 50 µM: Enterococcus faecium, 3 h
K. pneumoniae = format: cell-based, Klebsiella pneumoniae; conditions: 50 μM final drug concentration; for fold induction at 50 µM: Klebsiella pneumoniae, 3 h
P. aeruginosa = format: cell-based, Pseudomonas aeruginosa; conditions: 50 μM final drug concentration; for fold induction at 50 µM: Pseudomonas aeruginosa, 3 h
E. coli = format: cell-based, Escherichia coli; conditions: 50 μM final drug concentration; for fold induction at 50 µM: Escherichia coli, 3 h
[1] = system: S. aureus strain USA300-0114; format: cell-based, Staphylococcus aureus; conditions: 50 μM final drug concentration; for fold induction at 50 µM: Staphylococcus aureus, USA300, 3 h
E. cloacae = format: cell-based, Enterobacter cloacae; conditions: 50 μM final drug concentration; for fold induction at 50 µM: Enterobacter cloacae, 3 h
[2] = system: A. baumannii strain 98-37-09; format: cell-based, Acinetobacter baumannii; conditions: 50 μM final drug concentration; for fold induction at 50 µM: Acinetobacter baumannii, 983709, 3 h
[3] = 384-well format, cutoff for positive-scoring molecules 3-fold increase, read-out: AK-based Prestwick Library Screening Results, E. faecium (increase in extracellular AK activity)
[4] = 384-well format, cutoff for positive-scoring molecules 3-fold increase, read-out: AK-based Prestwick Library Screening Results, K. pneumoniae (increase in extracellular AK activity)
[5] = 384-well format, cutoff for positive-scoring molecules 3-fold increase, read-out: AK-based Prestwick Library Screening Results, P. aeruginosa (increase in extracellular AK activity)
[6] = 384-well format, cutoff for positive-scoring molecules 3-fold increase, read-out: AK-based Prestwick Library Screening Results, S. aureus (increase in extracellular AK activity)
[7] = 384-well format, cutoff for positive-scoring molecules 3-fold increase, read-out: AK-based Prestwick Library Screening Results, E. cloacae (increase in extracellular AK activity)
[8] = 384-well format, cutoff for positive-scoring molecules 3-fold increase, read-out: AK-based Prestwick Library Screening Results, A. baumannii (increase in extracellular AK activity)
[9] = planktonic E. faecium, positive cutoff 3-fold increase, read-out: AK-based Prestwick library screening result, E. faecium (fold increase in extracellular AK activity)
[10] = planktonic K. pneumoniae, positive cutoff 3-fold increase, read-out: AK-based Prestwick library screening result, K. pneumoniae (fold increase in extracellular AK activity)
[11] = planktonic P. aeruginosa, positive cutoff 3-fold increase, read-out: AK-based Prestwick library screening result, P. aeruginosa (fold increase in extracellular AK activity)
[12] = planktonic E. coli, positive cutoff 3-fold increase, read-out: AK-based Prestwick library screening result, E. coli (fold increase in extracellular AK activity)
[13] = planktonic S. aureus, positive cutoff 3-fold increase, read-out: AK-based Prestwick library screening result, S. aureus (fold increase in extracellular AK activity)
[14] = planktonic E. cloacae, positive cutoff 3-fold increase, read-out: AK-based Prestwick library screening result, E. cloacae (fold increase in extracellular AK activity)
[15] = planktonic A. baumannii, positive cutoff 3-fold increase, read-out: AK-based Prestwick library screening result, A. baumannii (fold increase in extracellular AK activity)
[16] = cutoff for positive-scoring molecules 3-fold increase, read-out: AK-based Prestwick Library Screening Results, E. faecium (fold increase in extracellular AK activity)
[17] = cutoff for positive-scoring molecules 3-fold increase, read-out: AK-based Prestwick Library Screening Results, K. pneumoniae (fold increase in extracellular AK activity)
[18] = cutoff for positive-scoring molecules 3-fold increase, read-out: AK-based Prestwick Library Screening Results, P. aeruginosa (fold increase in extracellular AK activity)
[19] = cutoff for positive-scoring molecules 3-fold increase, read-out: AK-based Prestwick Library Screening Results, E. coli (fold increase in extracellular AK activity)
[20] = cutoff for positive-scoring molecules 3-fold increase, read-out: AK-based Prestwick Library Screening Results, S. aureus (fold increase in extracellular AK activity)
[21] = cutoff for positive-scoring molecules 3-fold increase, read-out: AK-based Prestwick Library Screening Results, E. cloacae (fold increase in extracellular AK activity)
[22] = cutoff for positive-scoring molecules 3-fold increase, read-out: AK-based Prestwick Library Screening Results, A. baumannii (fold increase in extracellular AK activity)

Question: With CN1CCc2cccc3c2[C@H]1Cc1ccc(O)c(O)c1-3.CN1CCc2cccc3c2[C@H]1Cc1ccc(O)c(O)c1-3.Cl.Cl.O as the compound, how does the “AK-based Prestwick Library Screening Results, E. faecium (increase in extracellular AK activity)” value (E. faecium; 384-well format, […]) read?
Answer: 0.8

Question: What about the “AK-based Prestwick Library Screening Results, K. pneumoniae (increase in extracellular AK activity)” value (K. pneumoniae; 384-well format, […]) of the same compound?
Answer: 0.8

Question: And the “AK-based Prestwick Library Screening Results, P. aeruginosa (increase in extracellular AK activity)” value (P. aeruginosa; 384-well format, […])?
Answer: 0.6

Question: What about the “AK-based Prestwick Library Screening Results, E. coli (increase in extracellular AK activity)” value (E. coli; 384-well format, […]) of the same compound?
Answer: 0.8

Question: What about the “AK-based Prestwick Library Screening Results, S. aureus (increase in extracellular AK activity)” value ([1]; 384-well format, […]) of the same compound?
Answer: 0.9

Question: And the “AK-based Prestwick Library Screening Results, E. cloacae (increase in extracellular AK activity)” value (E. cloacae; 384-well format, […])?
Answer: 0.9

Question: And the “AK-based Prestwick Library Screening Results, A. baumannii (increase in extracellular AK activity)” value ([2]; 384-well format, […])?
Answer: 0.8

Question: c1ccc2c(c1)CCCc1cc(NCCN3CCOCC3)nnc1-2 [SR-95639A] was tested. Which “AK-based Prestwick Library Screening Results: E. faecium (increase in extracellular AK activity)” value (E. faecium; planktonic E. faecium, 384-well, […]) did it give?
Answer: 0.8

Question: What about the “AK-based Prestwick Library Screening Results: K. pneumoniae (increase in extracellular AK activity)” value (K. pneumoniae; planktonic K. pneumoniae, 384-well, […]) of the same compound?
Answer: 0.5

Question: And the “AK-based Prestwick Library Screening Results: P. aeruginosa (increase in extracellular AK activity)” value (P. aeruginosa; planktonic P. aeruginosa, 384-well, […])?
Answer: 0.4

Question: What about the “AK-based Prestwick Library Screening Results: E. coli (increase in extracellular AK activity)” value (E. coli; planktonic E. coli, 384-well, […]) of the same compound?
Answer: 0.5

Question: What about the “AK-based Prestwick Library Screening Results: S. aureus (increase in extracellular AK activity)” value ([1]; planktonic S. aureus, 384-well, […]) of the same compound?
Answer: 0.4

Question: What about the “AK-based Prestwick Library Screening Results: E. cloacae (increase in extracellular AK activity)” value (E. cloacae; planktonic E. cloacae, 384-well, […]) of the same compound?
Answer: 0.4

Question: What about the “AK-based Prestwick Library Screening Results: A. baumannii (increase in extracellular AK activity)” value ([2]; planktonic A. baumannii, 384-well, […]) of the same compound?
Answer: 0.5

Question: How did the fold induction at 50 µM (E. faecium; planktonic E. faecium, […], read-out: AK-based Prestwick library screening result, E. faecium (fold increase in extracellular AK activity)) turn out when O=C(NCNC(=O)NC1C(=O)NC(=O)N1CO)NC1C(=O)NC(=O)N1CO (stereo not shown) [Imidurea] was run?
Answer: 0.9

Question: What about the fold induction at 50 µM (K. pneumoniae; planktonic K. pneumoniae, […], read-out: AK-based Prestwick library screening result, K. pneumoniae (fold increase in extracellular AK activity)) of the same compound?
Answer: 0.7

Question: What about the fold induction at 50 µM (P. aeruginosa; planktonic P. aeruginosa, […], read-out: AK-based Prestwick library screening result, P. aeruginosa (fold increase in extracellular AK activity)) of the same compound?
Answer: 0.8

Question: What about the fold induction at 50 µM (E. coli; planktonic E. coli, […], read-out: AK-based Prestwick library screening result, E. coli (fold increase in extracellular AK activity)) of the same compound?
Answer: 0.9

Question: And the fold induction at 50 µM ([1]; planktonic S. aureus, […], read-out: AK-based Prestwick library screening result, S. aureus (fold increase in extracellular AK activity))?
Answer: 0.7

Question: And the fold induction at 50 µM (E. cloacae; planktonic E. cloacae, […], read-out: AK-based Prestwick library screening result, E. cloacae (fold increase in extracellular AK activity))?
Answer: 1.2

Question: And the fold induction at 50 µM ([2]; planktonic A. baumannii, […], read-out: AK-based Prestwick library screening result, A. baumannii (fold increase in extracellular AK activity))?
Answer: 0.8

Question: Which fold induction at 50 µM (E. faecium; [3]) does the source give for NNCCc1ccccc1 [Phenelzine sulfate] here?
Answer: 0.8

Question: What about the fold induction at 50 µM (K. pneumoniae; [4]) of the same compound?
Answer: 0.6

Question: What about the fold induction at 50 µM (P. aeruginosa; [5]) of the same compound?
Answer: 0.5

Question: And the fold induction at 50 µM (E. coli; 384-well format, cutoff for positive-scoring molecules 3-fold increase, read-out: AK-based Prestwick Library Screening Results, E. coli (increase in extracellular AK activity))?
Answer: 0.5

Question: And the fold induction at 50 µM [1, 6]?
Answer: 0.5

Question: And the fold induction at 50 µM (E. cloacae; [7])?
Answer: 0.5

Question: What about the fold induction at 50 µM [2, 8] of the same compound?
Answer: 0.5

Question: With COC(=O)C1=C(C)NC(C)=C(C(=O)OC(C)C)C1c1cccc2nonc12 (stereo not shown) [Isradipine] as the compound, how does the fold induction at 50 µM (E. faecium; [9]) read?
Answer: 1.1

Question: What about the fold induction at 50 µM (K. pneumoniae; [10]) of the same compound?
Answer: 1.1

Question: What about the fold induction at 50 µM (P. aeruginosa; [11]) of the same compound?
Answer: 1.1

Question: What about the fold induction at 50 µM (E. coli; [12]) of the same compound?
Answer: 1.1

Question: What about the fold induction at 50 µM [1, 13] of the same compound?
Answer: 0.7

Question: What about the fold induction at 50 µM (E. cloacae; [14]) of the same compound?
Answer: 1.4

Question: And the fold induction at 50 µM [2, 15]?
Answer: 1.2

Question: Which results are given for O=c1oc2ccccc2c(O)c1Cc1c(O)c2ccccc2oc1=O [Dicumarol]?
Answer: fold induction at 50 µM (E. faecium; [16]): 1.3; fold induction at 50 µM (K. pneumoniae; [17]): 1.1; fold induction at 50 µM (P. aeruginosa; [18]): 1.2; fold induction at 50 µM (E. coli; [19]): 1.1; fold induction at 50 µM [1, 20]: 1.3; fold induction at 50 µM (E. cloacae; [21]): 1.5; fold induction at 50 µM [2, 22]: 1.3

Question: CC1CCc2cc(F)cc3c(=O)c(C(=O)O)cn1c23 (stereo not shown) [Flumequine] was tested. Which fold induction at 50 µM (E. faecium; planktonic E. faecium, 384-well, […], read-out: AK-based Prestwick Library Screening Results: E. faecium (increase in extracellular AK activity)) did it give?
Answer: 1.5

Question: And the fold induction at 50 µM (K. pneumoniae; planktonic K. pneumoniae, 384-well, […], read-out: AK-based Prestwick Library Screening Results: K. pneumoniae (increase in extracellular AK activity))?
Answer: 2.2

Question: And the fold induction at 50 µM (P. aeruginosa; planktonic P. aeruginosa, 384-well, […], read-out: AK-based Prestwick Library Screening Results: P. aeruginosa (increase in extracellular AK activity))?
Answer: 1.4

Question: And the fold induction at 50 µM (E. coli; planktonic E. coli, 384-well, […], read-out: AK-based Prestwick Library Screening Results: E. coli (increase in extracellular AK activity))?
Answer: 13.6

Question: What about the fold induction at 50 µM ([1]; planktonic S. aureus, 384-well, […], read-out: AK-based Prestwick Library Screening Results: S. aureus (increase in extracellular AK activity)) of the same compound?
Answer: 2.2

Question: And the fold induction at 50 µM (E. cloacae; planktonic E. cloacae, 384-well, […], read-out: AK-based Prestwick Library Screening Results: E. cloacae (increase in extracellular AK activity))?
Answer: 24.4

Question: What about the fold induction at 50 µM ([2]; planktonic A. baumannii, 384-well, […], read-out: AK-based Prestwick Library Screening Results: A. baumannii (increase in extracellular AK activity)) of the same compound?
Answer: 2.9

Question: For C1CCc2nnnn2CC1 [Pentylenetetrazole], which fold induction at 50 µM (E. faecium; [3]) is on record?
Answer: 1

Question: And the fold induction at 50 µM (K. pneumoniae; [4])?
Answer: 0.5

Question: What about the fold induction at 50 µM (P. aeruginosa; [5]) of the same compound?
Answer: 0.7

Question: And the fold induction at 50 µM (E. coli; 384-well format, […], read-out: AK-based Prestwick Library Screening Results, E. coli (increase in extracellular AK activity))?
Answer: 0.6

Question: And the fold induction at 50 µM [1, 6]?
Answer: 0.7

Question: And the fold induction at 50 µM (E. cloacae; [7])?
Answer: 0.6

Question: And the fold induction at 50 µM [2, 8]?
Answer: 0.6

Question: With COC(=O)[C@H]1[C@H]2C[C@@H]3c4[nH]c5cc(OC)ccc5c4CCN3C[C@H]2C[C@@H](OC(=O)c2cc(OC)c(OC)c(OC)c2)[C@@H]1OC [Reserpine] as the compound, how does the fold induction at 50 µM (E. faecium; [16]) read?
Answer: 1.1

Question: And the fold induction at 50 µM (K. pneumoniae; [17])?
Answer: 1.2

Question: What about the fold induction at 50 µM (P. aeruginosa; [18]) of the same compound?
Answer: 1.4

Question: What about the fold induction at 50 µM (E. coli; [19]) of the same compound?
Answer: 1.3

Question: And the fold induction at 50 µM [1, 20]?
Answer: 1.3

Question: And the fold induction at 50 µM (E. cloacae; [21])?
Answer: 1.5

Question: What about the fold induction at 50 µM [2, 22] of the same compound?
Answer: 1.5

Question: Which fold induction at 50 µM (E. faecium; [9]) does the source give for CC1CC(OC(=O)c2ccccc2O)CC(C)(C)C1 (stereo not shown) [Homosalate] here?
Answer: 1.1

Question: What about the fold induction at 50 µM (K. pneumoniae; [10]) of the same compound?
Answer: 1.1

Question: What about the fold induction at 50 µM (P. aeruginosa; [11]) of the same compound?
Answer: 1.1

Question: And the fold induction at 50 µM (E. coli; [12])?
Answer: 1.3

Question: What about the fold induction at 50 µM [1, 13] of the same compound?
Answer: 1.2

Question: What about the fold induction at 50 µM (E. cloacae; [14]) of the same compound?
Answer: 1.5

Question: And the fold induction at 50 µM [2, 15]?
Answer: 1.8
